The experiment deals with T1, TRPC5 (Homo sapiens, UniProt Q9UL62).
T1 sequence (Q9UL62 1-973): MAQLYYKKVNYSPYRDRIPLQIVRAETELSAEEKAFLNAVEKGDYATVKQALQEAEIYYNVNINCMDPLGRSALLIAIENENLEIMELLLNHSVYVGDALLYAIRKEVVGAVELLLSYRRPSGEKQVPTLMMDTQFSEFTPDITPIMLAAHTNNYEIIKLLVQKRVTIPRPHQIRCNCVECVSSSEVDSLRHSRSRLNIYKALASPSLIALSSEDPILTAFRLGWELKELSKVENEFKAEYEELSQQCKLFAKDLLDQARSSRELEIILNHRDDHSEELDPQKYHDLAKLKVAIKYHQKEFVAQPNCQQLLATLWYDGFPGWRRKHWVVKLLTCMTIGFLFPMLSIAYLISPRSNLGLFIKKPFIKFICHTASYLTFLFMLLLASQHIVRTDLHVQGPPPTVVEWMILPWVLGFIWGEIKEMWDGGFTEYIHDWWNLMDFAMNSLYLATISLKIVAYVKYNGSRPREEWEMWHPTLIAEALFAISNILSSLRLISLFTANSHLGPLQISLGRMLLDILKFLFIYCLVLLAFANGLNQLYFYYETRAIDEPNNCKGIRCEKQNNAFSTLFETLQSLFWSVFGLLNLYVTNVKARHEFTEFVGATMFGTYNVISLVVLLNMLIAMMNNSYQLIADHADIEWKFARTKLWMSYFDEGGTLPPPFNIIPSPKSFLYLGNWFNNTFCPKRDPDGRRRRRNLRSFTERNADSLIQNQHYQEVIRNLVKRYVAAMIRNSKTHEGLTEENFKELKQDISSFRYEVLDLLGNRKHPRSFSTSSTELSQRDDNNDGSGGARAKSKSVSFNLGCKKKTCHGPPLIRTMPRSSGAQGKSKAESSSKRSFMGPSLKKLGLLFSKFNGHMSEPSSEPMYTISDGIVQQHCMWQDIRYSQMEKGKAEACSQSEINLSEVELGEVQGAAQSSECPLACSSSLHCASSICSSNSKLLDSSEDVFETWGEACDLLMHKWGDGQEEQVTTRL
It counts as cell-based.

What is called IC50 is the midpoint of a concentration-inhibition curve. Read a high IC50 as a need for much substance. In the case of `CC(=O)[C@H]1CC[C@H]2[C@@H]3CCC4=CC(=O)CC[C@]4(C)[C@H]3CC[C@]12C` [prog, progesterone], the IC50 turned out to be 5 µM.

The record behind these values is PMC3057289 (2011).
